For test [1], the target named is KIT D816V kinase activity (KIT autophosphorylation at tyrosine 719) in HMC1.2 cells (Homo sapiens (Human), UniProt P10721, D816V/V560G). Briefly: HMC1.2 autophosphorylation assay (phospho-Y719 c-KIT AlphaLISA). It counts as cell-based. The following applies: HMC1.2 mast cell leukemia cell line (KIT V560G, D816V), 90 minutes compound; read-out: INH-KIT-PHOS-HMC1.2. In general terms: Alpha assays give light when donor and acceptor beads are brought close together.
Chain of KIT D816V kinase activity (KIT autophosphorylation at tyrosine 719) in HMC1.2 cells (P10721 26-976 V560G/D816V): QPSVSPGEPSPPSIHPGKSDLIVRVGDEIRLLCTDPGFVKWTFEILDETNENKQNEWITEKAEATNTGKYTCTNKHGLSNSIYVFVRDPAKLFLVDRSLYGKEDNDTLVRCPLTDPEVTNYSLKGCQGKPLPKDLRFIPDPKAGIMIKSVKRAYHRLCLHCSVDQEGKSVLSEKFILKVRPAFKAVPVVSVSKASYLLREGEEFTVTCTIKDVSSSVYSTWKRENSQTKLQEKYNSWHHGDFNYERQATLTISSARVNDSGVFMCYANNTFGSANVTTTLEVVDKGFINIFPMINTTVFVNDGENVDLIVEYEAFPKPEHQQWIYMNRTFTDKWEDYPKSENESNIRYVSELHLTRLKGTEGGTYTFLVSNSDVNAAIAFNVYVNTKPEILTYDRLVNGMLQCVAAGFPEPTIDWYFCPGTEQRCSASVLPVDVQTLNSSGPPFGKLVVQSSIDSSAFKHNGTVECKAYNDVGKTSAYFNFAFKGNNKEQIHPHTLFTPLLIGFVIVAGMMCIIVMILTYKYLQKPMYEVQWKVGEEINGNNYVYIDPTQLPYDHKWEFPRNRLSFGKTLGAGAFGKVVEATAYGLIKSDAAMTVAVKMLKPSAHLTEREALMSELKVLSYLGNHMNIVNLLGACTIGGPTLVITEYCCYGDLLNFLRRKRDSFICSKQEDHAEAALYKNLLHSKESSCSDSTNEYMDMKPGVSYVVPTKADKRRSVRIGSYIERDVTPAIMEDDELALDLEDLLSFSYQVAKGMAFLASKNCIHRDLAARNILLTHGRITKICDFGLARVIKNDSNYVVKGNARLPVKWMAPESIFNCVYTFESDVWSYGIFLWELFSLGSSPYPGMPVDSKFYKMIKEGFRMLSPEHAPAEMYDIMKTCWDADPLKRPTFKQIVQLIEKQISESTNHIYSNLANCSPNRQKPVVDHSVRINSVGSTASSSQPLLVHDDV

For the next test, the target named is D816V KIT (Homo sapiens (Human), UniProt P10721, D816V). Briefly: KIT D816V assay at Km (Caliper electrophoretic mobility shift). The following applies: biochemical, 15 uM ATP (Km), 90 minutes at 25 C; read-out: INH KIT D816V.
Chain of D816V KIT (P10721 26-976 D816V): as the sequence (P10721 26-976 V560G/D816V) above, with G535V counted along it

Where only a bound is given, the exact number is not on record here.

For the compound `C[C@](N)(c1ccccc1)c1cnc(N2CCN(c3ncnn4cc(-c5cn[nH]c5)cc34)CC2)nc1` (single isomer, unassigned) [Compound 12], the IC50 in test [1] is less than 50 nM. Take `CC[C@H](c1ccc(F)cc1)c1cnc(N2CCN(c3ncnn4cc(-c5cnn(C)c5)cc34)CC2)nc1` (single isomer, unassigned) [Compound 40]: the IC50 is 1.01 to 10 nM on D816V KIT and 100 to 1000 nM in test [1]. `Cc1cc(-c2cc3c(N4CCN(c5ncc([C@](C)(O)c6ccc(F)cc6)cn5)CC4)ncnn3c2)no1` (single isomer, unassigned) [Compound 51]: the IC50 on D816V KIT is 10 to 100 nM. As for `Cc1cc(-c2cc3c(N4CCN(c5ncc([C@@](C)(O)c6ccc(F)cc6)cn5)CC4)ncnn3c2)no1` (single isomer, unassigned) [Compound 52], the IC50 at D816V KIT is 1.01 to 10 nM; in test [1] it was 100 to 1000 nM. On to `Cc1nn(C)cc1-c1cc2c(N3CCN(c4ncc([C@](C)(O)c5ccc(F)cc5)cn4)CC3)ncnn2c1` (single isomer, unassigned) [Compound 71], for which the IC50 lay within 1.01 to 10 nM on D816V KIT and 50 to 100 nM in test [1]. On the same counts, the results for `Cc1nn(C)cc1-c1cc2c(N3CCN(c4ncc([C@@](C)(O)c5ccc(F)cc5)cn4)CC3)ncnn2c1` (single isomer, unassigned) [Compound 72] are less than 1 nM and less than 50 nM. In the case of `Cn1cc(-c2cn3ncnc(N4CCN(c5ncc(C(C)(O)c6ccc(F)cc6)cn5)CC4)c3c2Cl)cn1` (stereo in doubt) [Compound 107, (S)-1-(2-(4-(5-chloro-6-(1-methyl-1H-pyrazol-4-yl)pyrrolo[1,2-f][1,2,4]triazin-4-yl)piperazin-1-yl)pyrimidin-5-yl)-1-(4-fluorophenyl)ethanol], the IC50 at D816V KIT is greater than 100 nM; in test [1] it was 1000 to 10000 nM. With `Cn1cc(-c2cc3c(N4CCN(c5ccccc5)CC4)ncnn3c2)cn1` [Compound 1], at D816V KIT, the IC50 was greater than 100 nM. Consider `COc1ccc(-c2cc3c(N4CCN(c5ccccc5)CC4)ncnn3c2)cc1` [Compound 2], for which the IC50 was greater than 100 nM on D816V KIT and greater than 10000 nM in test [1]. Taken in the same sequence, the figures for `COc1cc(OC)cc(-c2cc3c(N4CCN(c5ccccc5)CC4)ncnn3c2)c1` [Compound 4] were greater than 100 nM and greater than 10000 nM.

For the compound `COc1ccc(-c2cc3c(N4CCN(c5ccccc5)CC4)ncnn3c2)cc1OC` [Compound 5], the IC50 on D816V KIT lay in the range of 10 to 100 nM; in test [1], 1000 to 10000 nM. On the same counts, the results for `CN(C)C(=O)c1ccc(-c2cc3c(N4CCN(c5ccccc5)CC4)ncnn3c2)cc1` [Compound 6] are greater than 100 nM and greater than 10000 nM. Taken in the same sequence, the figures for `C[C@@H]1CN(c2ncnn3cc(-c4cnn(C)c4)cc23)CCN1c1ncc(Cc2ccccc2)cn1` [Compound 8] were 1.01 to 10 nM and 100 to 1000 nM.

With `Cn1cc(-c2cc3c(N4CCN(c5ccc(C(O)c6ccccc6)cn5)CC4)ncnn3c2)cn1` (stereo not drawn) [Compound 11], the IC50 at D816V KIT was in the range of 1.01 to 10 nM; in test [1], 100 to 1000 nM. On the same counts, the results for `Cn1cc(-c2cc3c(N4CCN(c5ncc([C@H](N)c6ccccc6)cn5)CC4)ncnn3c2)cn1` [Compound 13, (R)-(2-(4-(6-(1-methyl-1H-pyrazol-4-yl)pyrrolo[2,1-f][1,2,4]triazin-4-yl)piperazin-1-yl)pyrimidin-5-yl)(phenyl)methanamine] are 1.01 to 10 nM and 100 to 1000 nM. Taken in the same sequence, the figures for `Cn1cc(-c2cc3c(N4CCN(c5ncc(Oc6ccc(F)cc6)cn5)CC4)ncnn3c2)cn1` [Compound 15] were 10 to 100 nM and 100 to 1000 nM. For the compound `N#Cc1ccc(-c2cc3c(N4CCN(c5ncc(Cc6ccccc6)cn5)CC4)ncnn3c2)cc1` [Compound 16], the IC50 at D816V KIT fell in the range of 1.01 to 10 nM; in test [1], 100 to 1000 nM. As for `Cc1c(-c2cc3c(N4CCN(c5ncc(Cc6ccccc6)cn5)[C@H](C)C4)ncnn3c2)cnn1C` [Compound 19], the IC50 at D816V KIT fell in the range of 1.01 to 10 nM; in test [1], 100 to 1000 nM. On the same counts, the results for `C=C(c1ccc(F)cc1)c1cnc(N2CCN(c3ncnn4cc(-c5cnn(C)c5)cc34)CC2)nc1` [Compound 23] are 10 to 100 nM and 100 to 1000 nM.

In the case of `Cn1cc(-c2cc3c(N4CCN(c5ncc([C@](C)(O)c6ccccc6)cn5)CC4)ncnn3c2)cn1` [Compound 24], the IC50 was in the range of 1.01 to 10 nM at D816V KIT and 100 to 1000 nM in test [1]. On to `Cn1cc(-c2cc3c(N4CCN(c5ncc([C@@](C)(O)c6ccccc6)cn5)CC4)ncnn3c2)cn1` [Compound 25], for which the figures for the IC50 (on D816V KIT; in test [1]) were less than 1 nM and less than 50 nM, respectively. On the same counts, the results for `Cn1cc(-c2cc3c(N4CCN(c5ncc([C@@H](N)c6ccc(F)cc6)cn5)CC4)ncnn3c2)cn1` [Compound 27] are 1.01 to 10 nM and less than 50 nM. On the same counts, the results for `Cn1cc(-c2cc3c(N4CCN(c5ncc([C@H](N)c6ccc(F)cc6)cn5)CC4)ncnn3c2)cn1` [Compound 28] are 1.01 to 10 nM and less than 50 nM. On the same counts, the results for `Cn1cc(-c2cc3c(N4CCN(c5ncc([C@@H](O)c6ccc(F)cc6)cn5)CC4)ncnn3c2)cn1` [Compound 31] are 1.01 to 10 nM and less than 50 nM. Consider `Cn1cc(-c2cc3c(N4CCN(c5ncc([C@H](O)c6ccc(F)cc6)cn5)CC4)ncnn3c2)cn1` [Compound 32], for which the IC50 is 1.01 to 10 nM at D816V KIT and less than 50 nM in test [1]. On the same counts, the results for `NC(=O)c1ccc(-c2cc3c(N4CCN(c5ncc(Cc6ccccc6)cn5)CC4)ncnn3c2)cc1` [Compound 33] are 1.01 to 10 nM and 100 to 1000 nM. Consider `CN(C)[C@@H](c1ccccc1)c1cnc(N2CCN(c3ncnn4cc(-c5cnn(C)c5)cc34)CC2)nc1` [Compound 36, (S)—N,N-dimethyl-1-(2-(4-(6-(1-methyl-1H-pyrazol-4-yl)pyrrolo[2,1-f][1,2,4]triazin-4-yl)piperazin-1-yl)pyrimidin-5-yl)-1-phenylmethanamine], for which the values for the IC50 (at D816V KIT; in test [1]) were 1.01 to 10 nM and 100 to 1000 nM, respectively. Regarding `CN(C)[C@H](c1ccccc1)c1cnc(N2CCN(c3ncnn4cc(-c5cnn(C)c5)cc34)CC2)nc1` [Compound 37], the IC50 on D816V KIT is 10 to 100 nM; in test [1], 1000 to 10000 nM. Taken in the same sequence, the figures for `Cn1cc(-c2cc3ncnc(N4CCN(c5ncc(C(C)(C)c6ccc(F)cc6)cn5)CC4)n3n2)cn1` [Compound 42] were 10 to 100 nM and 1000 to 10000 nM. On the same counts, the results for `Cn1cc(-c2cc3c(N4CCN(c5ncc([C@@](C)(O)c6ccccc6F)cn5)CC4)ncnn3c2)cn1` [Compound 47] are less than 1 nM and less than 50 nM. For the compound `Cn1cc(-c2cc3c(N4CCN(c5ncc([C@](C)(O)c6ccccc6F)cn5)CC4)ncnn3c2)cn1` [Compound 48], the IC50 is 1.01 to 10 nM at D816V KIT and less than 50 nM in test [1]. On the same counts, the results for `Cn1cc(-c2cc3c(N4CCN(c5ncc([C@@H](CO)c6ccc(F)cc6)cn5)CC4)ncnn3c2)cn1` [Compound 49] are less than 1 nM and less than 50 nM. Turning to `Cn1cc(-c2cc3c(N4CCN(c5ncc([C@H](CO)c6ccc(F)cc6)cn5)CC4)ncnn3c2)cn1` [Compound 50], the values for the IC50 (at D816V KIT; in test [1]) were 1.01 to 10 nM and less than 50 nM, respectively. With `Cn1cc(-c2cc3c(N4CCN(c5ncc([C@](C)(O)c6ccc(F)cn6)cn5)CC4)ncnn3c2)cn1` [Compound 53], the IC50 fell in the range of 10 to 100 nM at D816V KIT and 1000 to 10000 nM in test [1]. `Cc1cc(F)ccc1[C@](C)(O)c1cnc(N2CCN(c3ncnn4cc(-c5cnn(C)c5)cc34)CC2)nc1` [Compound 80]: on D816V KIT, the IC50 was 10 to 100 nM.

(Values after US10807985B2 (Blueprint Medicines Corporation, priority 2013, dated 2020).)
